Experiments:
[1] = biological target: T1, MAO‐A (Homo sapiens, UniProt P21397); assay: MAO-A inhibition assay (Amplex red fluorescence, tyramine substrate); type: biochemical; details: percent inhibition observed at 100 μM
T1 sequence (P21397 1-527): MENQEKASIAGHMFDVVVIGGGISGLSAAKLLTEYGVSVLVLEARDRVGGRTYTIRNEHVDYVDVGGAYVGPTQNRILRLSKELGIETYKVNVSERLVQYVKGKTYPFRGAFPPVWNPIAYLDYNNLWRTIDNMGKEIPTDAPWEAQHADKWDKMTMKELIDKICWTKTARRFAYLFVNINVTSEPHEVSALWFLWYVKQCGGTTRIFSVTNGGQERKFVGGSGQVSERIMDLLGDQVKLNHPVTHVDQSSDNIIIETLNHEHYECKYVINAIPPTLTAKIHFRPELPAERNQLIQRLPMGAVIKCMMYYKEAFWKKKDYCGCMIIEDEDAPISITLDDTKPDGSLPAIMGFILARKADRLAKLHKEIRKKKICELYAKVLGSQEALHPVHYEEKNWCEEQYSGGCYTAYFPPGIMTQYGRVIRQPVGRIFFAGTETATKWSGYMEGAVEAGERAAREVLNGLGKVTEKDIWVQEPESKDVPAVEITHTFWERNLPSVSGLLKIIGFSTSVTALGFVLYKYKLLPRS
Method: (§1) The range of compounds used in the study started at 1 mM for the initial screening to determine the percentage of inhibition. […] For 10 minutes, the reaction mixture was incubated at 37 °C. Tyramine, a substrate with a final concentration of 0.30 mM, was added to each well after 15 minutes, followed by 10 μL of Amplex red, a fluorogenic substrate. The FLUOstar Omega fluorescence plate reader (BMG Labtech GmbH, Ortenberg, Germany) was used to detect the change in fluorescence.

[2] = biological target: T2, MAO‐B (Homo sapiens, UniProt P27338); assay: MAO-B inhibition assay (Amplex red fluorescence, tyramine substrate); type: biochemical; details: percent inhibition observed at 100 μM
T2 sequence (P27338 2-520): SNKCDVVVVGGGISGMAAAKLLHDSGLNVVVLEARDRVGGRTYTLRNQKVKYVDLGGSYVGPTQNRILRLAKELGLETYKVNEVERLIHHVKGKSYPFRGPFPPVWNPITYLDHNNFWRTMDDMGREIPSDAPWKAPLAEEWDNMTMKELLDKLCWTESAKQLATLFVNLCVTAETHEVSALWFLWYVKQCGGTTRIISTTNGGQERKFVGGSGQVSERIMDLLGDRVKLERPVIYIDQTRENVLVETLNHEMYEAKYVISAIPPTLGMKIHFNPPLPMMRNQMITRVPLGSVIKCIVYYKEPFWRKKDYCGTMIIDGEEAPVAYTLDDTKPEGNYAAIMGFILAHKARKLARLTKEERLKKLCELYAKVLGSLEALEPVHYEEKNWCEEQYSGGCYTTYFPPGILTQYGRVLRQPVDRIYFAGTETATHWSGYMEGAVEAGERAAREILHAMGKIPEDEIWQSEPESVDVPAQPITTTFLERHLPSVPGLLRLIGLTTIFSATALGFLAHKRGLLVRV
Method: as §1

SMILES | inhibition at 100 µM [1] [%] | inhibition at 100 µM [2] [%]
CCOC(=O)C1=C(Nc2ccc(Cl)cc2)CC(c2ccccc2)N(c2ccc(Cl)cc2)C1c1ccccc1 (centres unmarked) [4 b, Ethyl 1‐(4‐chlorophenyl)‐4‐(4‐chlorophenylamino)‐2,6‐diphenyl‐1,2,5,6‐tetrahydropyridine‐3‐carboxylate] | 40 | 
CCOC(=O)C1=C(Nc2ccc(Br)cc2)CC(c2ccc(Cl)cc2)N(c2ccc(Br)cc2)C1c1ccc(Cl)cc1 (centres unmarked) [4 h, Ethyl 1‐(4‐bromophenyl)‐4‐(4‐bromophenylamino)‐2,6‐bis(4‐chlorophenyl)‐1,2,5,6‐tetrahydropyridine‐3‐carboxylate] | < 50 | 
CCOC(=O)C1=C(Nc2ccc(OC)cc2)CC(c2ccc(Cl)cc2)N(c2ccc(OC)cc2)C1c1ccc(Cl)cc1 (centres unmarked) [4 i, Ethyl 2,6‐bis(4‐chlorophenyl)‐1‐(4‐methoxyphenyl)‐4‐(4‐methoxyphenylamino)‐1,2,5,6‐tetrahydropyridine‐3‐carboxylate] | < 50 | < 50
CCOC(=O)C1=C(Nc2ccc(C)cc2)CC(c2ccc(Cl)cc2)N(c2ccc(C)cc2)C1c1ccc(Cl)cc1 (centres unmarked) [4 j, Ethyl 4‐(p–toluidino)‐2,6‐bis(4‐chlorophenyl)‐1‐p–tolyl‐1,2,5,6‐tetrahydropyridine‐3‐carboxylate] | < 50 | < 50
CCOC(=O)C1=C(Nc2ccc(Cl)cc2)CC(c2ccc([N+](=O)[O-])cc2)N(c2ccc(Cl)cc2)C1c1ccc([N+](=O)[O-])cc1 (centres unmarked) [4 l, Ethyl 1‐(4‐chlorophenyl)‐4‐(4‐chlorophenylamino)‐2,6‐bis(4‐nitrophenyl)‐1,2,5,6‐tetrahydropyridine‐3‐carboxylate] |  | 23
CCOC(=O)C1=C(Nc2ccc(Br)cc2)CC(c2ccc([N+](=O)[O-])cc2)N(c2ccc(Br)cc2)C1c1ccc([N+](=O)[O-])cc1 (centres unmarked) [4 m, Ethyl 1‐(4‐bromophenyl)‐4‐(4‐bromophenylamino)‐2,6‐bis(4‐nitrophenyl)‐1,2,5,6‐tetrahydropyridine‐3‐carboxylate] |  | 46
